Test results as given in article PMC4348164, “Evidence of more ion channels inhibited by celecoxib: KV1.3 and L-type Ca^2+ channels” (BMC Research Notes, 2015).

Molecular target: T1, human KV1.3 channels (Homo sapiens, UniProt P22001)
T1 construct: gene KCNA3; homotetramer
Assay: whole-cell patch clamp, CHO cells
Assay type: cell-based

T1 sequence (P22001 whole entry): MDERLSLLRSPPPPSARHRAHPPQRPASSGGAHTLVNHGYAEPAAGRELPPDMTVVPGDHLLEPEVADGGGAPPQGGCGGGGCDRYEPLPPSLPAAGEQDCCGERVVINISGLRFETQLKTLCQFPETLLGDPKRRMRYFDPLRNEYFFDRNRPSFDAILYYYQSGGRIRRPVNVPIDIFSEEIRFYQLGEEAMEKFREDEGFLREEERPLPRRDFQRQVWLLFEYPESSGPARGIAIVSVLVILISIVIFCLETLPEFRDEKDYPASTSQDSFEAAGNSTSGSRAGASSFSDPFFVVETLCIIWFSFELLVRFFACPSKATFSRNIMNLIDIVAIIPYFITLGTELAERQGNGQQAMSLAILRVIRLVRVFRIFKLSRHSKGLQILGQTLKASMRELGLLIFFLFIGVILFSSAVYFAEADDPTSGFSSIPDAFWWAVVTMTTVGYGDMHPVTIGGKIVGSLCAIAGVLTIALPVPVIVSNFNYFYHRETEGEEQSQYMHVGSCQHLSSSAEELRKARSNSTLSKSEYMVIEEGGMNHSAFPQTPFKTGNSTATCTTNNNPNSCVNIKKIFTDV

IC50: 5 µM
SMILES: Cc1ccc(-c2cc(C(F)(F)F)nn2-c2ccc(S(N)(=O)=O)cc2)cc1 [celecoxib]
